Source: patent US8338637B2, “Therapeutic compounds” (Allergan, Inc., priority 2006, dated 2012)

Assays:
EP4 receptors = biological target: T1, EP4 receptors (Homo sapiens, UniProt P35408); assay: Radioligand binding, EP4 receptor; settings: [3H]PGE2 competition
T1 construct: expressed in transfected cells; host or cells: HEK-293 cells (membrane fraction)
Protocol: HEK-293 cells stably expressing the human or feline FP receptor, or EP1, EP2, or EP4 receptors were washed with TME buffer, scraped from the bottom of the flasks, and homogenized for 30 sec using a Brinkman PT 10/35 polytron. TME buffer was added to achieve a final 40 ml volume in the centrifuge tubes (the composition of TME is 100 mM TRIS base, 20 mM MgCl2, […]; 10N HCl is added to achieve a pH of 7.4).
The cell homogenate was centrifuged at 19000 r.p.m. for 20 min at 4° C. using a Beckman Ti-60 rotor. The resultant pellet was resuspended in TME buffer to give a final 1 mg/ml protein concentration, as determined by Biorad assay. Radioligand binding competition assays vs. [^3H-]17-phenyl PGF2[…] (5 nM) were performed in a 100 μl volume for 60 min. Binding reactions were started by adding plasma membrane fraction. The reaction was terminated by the addition of 4 ml ice-cold TRIS-HCl buffer and rapid filtration through glass fiber GF/B filters using a Brandel cell harvester. The filters were washed 3 times with ice-cold buffer and oven dried for one hour.
[^3H-] PGE2 (specific activity 180 Ci mmol) was used as the radioligand for EP receptors. [^3H] 17-phenyl PGF2α was employed for FP receptor binding studies. […] 17-phenyl PGF2α and non-specific binding determined with 10^−5M of unlabeled PGE2, or 17-phenyl PGF2α, according to receptor subtype studied.

EP2 [1] = biological target: T2, EP2 (Homo sapiens, UniProt P43116); assay: cAMP assay, HEK-EBNA cells expressing EP2; format: cell-based; design: expressed in transfected cells; host or cells: HEK-EBNA cells
Protocol: A 384-well drug plate was prepared to contain 6 test compounds, PGE2 and cAMP in 16 serial dilutions in triplicate, using a Biomek station. HEK-EBNA cells expressing a target PG receptor subtype (EP2 or EP4) were suspended in a stimulation buffer (HBSS, 0.1% BSA, 0.5 mM IBMX and 5 mM HEPES, pH 7.4) in a density of 10^4 cells/5 μl. The reaction was initiated by mixing 5 μL drug dilutions with 5 μl of HEK-EBNA cells in a well, carried out for 30 min at room temperature, and followed by the addition of 5 μl anti-cAMP acceptor beads in the control buffer with Tween-20 (25 mM NaCl, 0.03% Tween-20, 5 mM HEPES, pH7.4). After 30 min in the dark at room temperature, the mixtures were incubated with 15 μl biotinylated-cAMP/strepavidin donor beads in Lysis/Detection buffer (0.1% BSA, 0.3% Tween-20 and 5 mM HEPES, pH7.4) for 45 min at the room temperature. Fluorescence changes were read using a Fusion-alpha HT microplate reader.

EP2 [2] = biological target: T2, EP2; assay: Competition binding, [3H]PGE2, HEK 293 cells expressing human EP2 receptors; design: expressed in transfected cells; host or cells: HEK 293 cells (membranes or whole cells); settings: [3H]PGE2 competition
Protocol: Competition binding experiments were performed in a medium containing Hank's balanced salt solution, Hepes 20 mM, pH 7.3, membranes (˜60 μg protein) or 2×10^5 cells from HEK 293 cells stably expressing human EP2 receptors, [^3H]PGE2 (10 nM) and various concentrations of test compounds in a total volume of 300 μl. Reaction mixtures were incubated at 23° C. for 60 min, and were filtered over Whatman GF/B filters under vacuum. Filters were washed three times with 5 ml ice-cold buffer containing 50 mM Tris/HCl (pH 7.3). Non-specific binding was estimated in the presence of excess unlabeled PGE2 (10 μM). Binding data fitted to the binding model for a single class of binding sites, using nonlinear regression analysis. IC50 values thus obtained were converted to Ki using the equation of Ki=(IC50/(1+[L]/KD) where [L] represents PGE2 concentration (10 nM) and KD the dissociation constant for [^3H]PGE2 at human EP2 receptors (40 nM). […]
The cell homogenate was centrifuged at 19000 r.p.m. for 20 min at 4° C. using a Beckman Ti-60 rotor. The resultant pellet was resuspended in TME buffer to give a final 1 mg/ml protein concentration, as determined by Biorad assay. […]
[^3H-] […] 17-phenyl PGF2α and non-specific binding determined with 10^−5M of unlabeled PGE2, or 17-phenyl PGF2α, according to receptor subtype studied.

T2 sequence (P43116 whole entry): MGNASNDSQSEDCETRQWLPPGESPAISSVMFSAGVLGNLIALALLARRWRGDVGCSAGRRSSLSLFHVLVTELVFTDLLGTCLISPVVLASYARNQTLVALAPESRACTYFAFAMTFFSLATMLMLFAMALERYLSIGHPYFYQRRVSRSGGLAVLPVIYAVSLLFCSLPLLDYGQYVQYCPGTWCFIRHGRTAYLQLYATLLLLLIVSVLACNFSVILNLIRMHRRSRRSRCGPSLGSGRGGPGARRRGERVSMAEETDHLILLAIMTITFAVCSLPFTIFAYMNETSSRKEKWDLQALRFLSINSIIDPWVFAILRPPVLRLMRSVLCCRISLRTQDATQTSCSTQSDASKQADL
T1 sequence (P35408 whole entry): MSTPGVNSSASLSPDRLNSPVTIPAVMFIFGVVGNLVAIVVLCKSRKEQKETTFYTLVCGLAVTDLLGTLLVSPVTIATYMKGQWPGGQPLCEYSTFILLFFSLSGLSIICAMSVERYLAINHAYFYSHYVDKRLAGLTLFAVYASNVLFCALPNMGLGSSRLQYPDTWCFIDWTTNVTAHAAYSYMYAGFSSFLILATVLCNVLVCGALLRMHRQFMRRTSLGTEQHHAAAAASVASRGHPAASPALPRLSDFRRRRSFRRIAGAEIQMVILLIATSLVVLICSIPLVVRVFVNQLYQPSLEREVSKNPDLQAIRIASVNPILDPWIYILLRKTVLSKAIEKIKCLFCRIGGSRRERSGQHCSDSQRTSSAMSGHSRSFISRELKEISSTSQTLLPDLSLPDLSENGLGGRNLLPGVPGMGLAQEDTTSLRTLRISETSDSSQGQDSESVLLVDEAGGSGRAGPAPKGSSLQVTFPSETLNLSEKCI

SMILES | Ki (EP4 receptors) | EC50 (EP2 [1]) | Ki (EP2 [2])
O=C(O)c1ccc(CCC[C@H]2CCC(=O)[C@@H]2COc2cc(Cl)cc(CO)c2)s1 [5-{3-[(1S,2S)-2-(3-Chloro-5-hydroxymethyl-phenoxymethyl)-3-oxo-cyclopentyl]-propyl}thiophene-2-carboxylic acid] | > 10 µM | 457 nM | 300 nM
O=C(O)c1ccc(CCC[C@H]2C=CC(=O)[C@@H]2COc2cc(Cl)cc(CO)c2)s1 [5-{3-[(1S,5S)-5-(3-Chloro-5-hydroxymethyl-phenoxymethyl)-4-oxo-cyclopent-2-enyl]-propyl}-thiophene-2-carboxylic acid] | – | 8.7 nM | 201 nM
